According to publication PMC10600247, “Impact of C- and N-terminal protection on the stability, metal chelation and antimicrobial properties of calcitermin” (Scientific Reports, 2023):
Residues, ends and D or L forms follow the SMILES beside them.

Key:
[1] = Source text: Stability constants for proton and metal complexes were obtained from pH-metric titration curves registered at T = 298 K and ionic strength 0.1 M (KCl). The potentiometric apparatus was previously described. Solutions were titrated with 0.1 M carbonate-free KOH. The electrode was daily calibrated for hydrogen ion concentration by titrating HNO3 with the standard base solution, under the same experimental conditions as above. The asymmetry potential and the slope of the electrode couple were computed by means of […][41] and Glee[42] programs. The purities and exact concentrations of the ligand solutions were determined by the Gran method. The […][44] program was employed for the overall formation constant (β) calculations, referred to the following equilibrium equation: pM + qL + rH ⇆ MpLqHr (charges omitted; p is 0 in the case of ligand protonation; r can be negative). The computed standard deviations (referring to random errors only) were given by the program itself and are shown in parentheses as uncertainties on the last significant figure. Hydrolysis constants for metal ions were taken from the literature[45],[46]. The distribution and competition diagrams were computed using the HYSS program.
1. Wild-type calcitermin: thermodynamic data
Wild-type calcitermin (WT) has been previously investigated by our research group in aqueous solutions and ionic medium NaClO4.1 For the sake of comparison, potentiometric studies of WT and its copper and zinc complexes have been performed in a different ionic medium (KCl 0.1 M). The study of the speciation under different experimental conditions, changing ionic medium and metal-ligand ratio, is essential to comprehensively describe the thermodynamics of calcitermin, which is usually found in multicomponent media like biological fluids.
Table S1. Equilibrium constants for protonation of WT and its Cu2+ and Zn2+ complex formation at T = 298 K and I = 0.1 M (KCl). Values in parentheses are standard deviations on the last significant figure.

S. aureus (ATCC 25293) = assay: In vitro anti-S. aureus CFU assay; type: cell-based, Staphylococcus aureus; conditions: 3 h, pH 5.4; for mean CFU number ± S.D.: per 0.1 mL
Description: All microbes were grown at 37 °C in Tryptic Soy Broth (TSB; Biolife, Milan, Italy) or Tryptic Soy Agar plates (TSA, Biolife, Milan, Italy). Peptides were tested at a final concentration C = 0.128, 0.064, 0.032 mg/mL, in the presence or absence of ZnCl2 or CuCl2, at a M:L molar ratio 0.9:1. Briefly, all the microbes were expanded in TSB at 37 °C under agitation for 12 h and then sub-cultured by 1:10 dilution in TSB under the same conditions until reaching OD600nm = 0.3–0.4, as measured by spectrophotometric reading using a GENESYS 10S UV–Vis spectrophotometer (Thermo Scientific, Milan, Italy), corresponding to 0.9–1.2 × 10^7 colony forming units (CFU) per mL, 1.5–2 × 10^8 CFU/mL and 2.4–3.2 × 10^8 CFU/mL, for C. albicans, S. aureus and E. coli respectively. The cultures were then centrifuged at 4500 rpm for 10 min in a SL 8 centrifuge (TX-150 Rotor) (Thermo Scientific, Milan, Italy), and the cellular pellets were washed with PBS pH 5.4. Pelletized cultures were then suspended in 10 mL of PBS pH 5.4, then the suspensions were diluted to a final concentration of 10^4 CFU/mL. Aliquots of 100 µl (corresponding to 10^3 CFU) were seeded in each well of a 96-wells plate. 3 µl of TSB at pH 5.4 were added to each well to obtain a final 1.5% TSB concentration in the culture medium. Peptides were serially diluted in PBS pH 5.4 to C = 0.257, 0.128, and 0.064 mg/mL. ZnCl2 and CuCl2 solutions were added where requested to obtain a M:L ratio 0.9:1. 100 µl of the prepared peptides ± ZnCl2/CuCl2 solutions were then added to each well, obtaining the final 0.128, 0.064 and 0.032 mg/mL peptide concentrations in a total 0.2 mL volume. PBS alone and PBS + ZnCl2/CuCl2 solutions were included as controls. The plates were incubated at 37 °C on a platform rocker with slow stirring for 3 and 24 h. At the end of the incubation times, 100 µl aliquots were taken from each sample and diluted in PBS pH 5.4 to be seeded on TSA plates. Specifically, aliquots were diluted 1:10 at 3 h, and 1:200, 1:100,000 and 1:10 at 24 h, for C. albicans, E. coli, and S. aureus respectively. After incubation for 24 h at 37 °C, grown CFUs were enumerated. Samples were assayed in triplicate in two independent experiments. Student’s t-test was used for the evaluation of significance in biological tests; a p value ≤ 0.05 was considered significant.

[2] = T = 298 K, I = 0.1 M (KCl), charges omitted
[3] = peptide 0.032 mg/mL + CuCl2 (0.9:1)
[4] = peptide 0.032 mg/mL + ZnCl2 (0.9:1)
[5] = peptide 0.064 mg/mL + CuCl2 (0.9:1)
[6] = peptide 0.064 mg/mL + ZnCl2 (0.9:1)
[7] = peptide 0.128 mg/mL + CuCl2 (0.9:1)
[8] = peptide 0.128 mg/mL + ZnCl2 (0.9:1)

| Structure (SMILES) | pKa [CuH2L] [1] | pKa [CuHL] [1] | pKa [CuL] [1] | pKa [ZnHL] [1] | logβ [CuH2L] [1, 2] | logβ [CuH-1L] [1, 2] | logβ [CuHL] [1, 2] | logβ [CuL] [1, 2] | logβ [ZnHL] [1, 2] | logβ [ZnL] [1, 2] | CFU decrease/increase with respect to untreated controls (S. aureus (ATCC 25293); [3]) | mean CFU number ± S.D. (S. aureus (ATCC 25293); [3]) [CFU] | CFU decrease/increase with respect to untreated controls (S. aureus (ATCC 25293); [4]) | mean CFU number ± S.D. (S. aureus (ATCC 25293); [4]) [CFU] | CFU decrease/increase with respect to untreated controls (S. aureus (ATCC 25293); [5]) | mean CFU number ± S.D. (S. aureus (ATCC 25293); [5]) [CFU] | CFU decrease/increase with respect to untreated controls (S. aureus (ATCC 25293); [6]) | mean CFU number ± S.D. (S. aureus (ATCC 25293); [6]) [CFU] | mean CFU number ± S.D. (S. aureus (ATCC 25293); [7]) [CFU] | mean CFU number ± S.D. (S. aureus (ATCC 25293); [8]) [CFU] | also measured |
| --- | --- | --- | --- | --- | --- | --- | --- | --- | --- | --- | --- | --- | --- | --- | --- | --- | --- | --- | --- | --- | --- |
| CC[C@H](C)[C@H](NC(=O)[C@H](C)NC(=O)[C@@H](NC(C)=O)C(C)C)C(=O)N[C@@H](C)C(=O)N[C@@H](CC(C)C)C(=O)N[C@@H](CCCCN)C(=O)N[C@@H](C)C(=O)N[C@@H](C)C(=O)N[C@@H](Cc1c[nH]cn1)C(=O)N[C@@H](Cc1ccc(O)cc1)C(=O)N[C@@H](Cc1c[nH]cn1)C(=O)N[C@H](C(=O)N[C@@H](Cc1c[nH]cn1)C(=O)N[C@@H](CCCCN)C(=O)N[C@@H](CCC(=O)O)C(=O)O)[C@@H](C)O [L1, Ac-VAIALKAAHYHTHKE] (Ac-VAIALKAAHYHTHKE-OH) | 4.40 | 5.38 | 6.59 | 5.80 | 18.21(3) | 1.84(3) | 13.81(2) | 8.43(2) | 11.00(5) | 5.21(2) | +20% | 193 ± 54 | +14% | 183 ± 24 | +37% | 221 ± 66 | +19% | 191 ± 6 | 166 ± 35 | 87 ± 8 | pKa [CuH-1L] [1]: 6.88; pKa [ZnL] [1]: 7.33; CFU decrease/increase with respect to untreated controls (S. aureus (ATCC 25293); [7]): +3%; CFU decrease/increase with respect to untreated controls (S. aureus (ATCC 25293); peptide alone 0.032 mg/mL): +34%; mean CFU number ± S.D. (S. aureus (ATCC 25293); peptide alone 0.032 mg/mL): 215 ± 68 CFU; CFU decrease/increase with respect to untreated controls (S. aureus (ATCC 25293); peptide alone 0.064 mg/mL): -4%; mean CFU number ± S.D. (S. aureus (ATCC 25293); peptide alone 0.064 mg/mL): 155 ± 31 CFU; CFU decrease/increase with respect to untreated controls (S. aureus (ATCC 25293); peptide alone 0.128 mg/mL): +31%; mean CFU number ± S.D. (S. aureus (ATCC 25293); peptide alone 0.128 mg/mL): 211 ± 49 CFU |
| CC[C@H](C)[C@H](NC(=O)[C@H](C)NC(=O)[C@@H](NC(C)=O)C(C)C)C(=O)N[C@@H](C)C(=O)N[C@@H](CC(C)C)C(=O)N[C@@H](CCCCN)C(=O)N[C@@H](C)C(=O)N[C@@H](C)C(=O)N[C@@H](Cc1c[nH]cn1)C(=O)N[C@@H](Cc1ccc(O)cc1)C(=O)N[C@@H](Cc1c[nH]cn1)C(=O)N[C@H](C(=O)N[C@@H](Cc1c[nH]cn1)C(=O)N[C@@H](CCCCN)C(=O)N[C@@H](CCC(=O)O)C(N)=O)[C@@H](C)O [L2, Ac-VAIALKAAHYHTHKE-NH2] (Ac-VAIALKAAHYHTHKE-NH2) | 5.49 | 6.30 | 6.70 | 7.63 | 23.06(4) | 4.57(6) | 17.57(5) | 11.27(7) | 14.15(4) | 6.52(5) | -17% | 129± 41 | 0% | 177 ± 11 | -18% | 127 ± 30 | -17% | 147 ± 16 | 194 ± 4 | 82 ± 16 | pKa [CuH-1L] [1]: 9.44; pKa [CuH-2L] [1]: 9.91; pKa [ZnH2L] [1]: 6.14; pKa [ZnH-1L] [1]: 9.44; pKa [ZnL] [1]: 8.93; logβ [ZnH2L] [1, 2]: 20.29(6); CFU decrease/increase with respect to untreated controls (S. aureus (ATCC 25293); [7]): +6%; CFU decrease/increase with respect to untreated controls (S. aureus (ATCC 25293); peptide alone 0.032 mg/mL): -12%; mean CFU number ± S.D. (S. aureus (ATCC 25293); peptide alone 0.032 mg/mL): 157 ± 35 CFU; CFU decrease/increase with respect to untreated controls (S. aureus (ATCC 25293); peptide alone 0.064 mg/mL): +14%; mean CFU number ± S.D. (S. aureus (ATCC 25293); peptide alone 0.064 mg/mL): 201 ± 40 CFU; CFU decrease/increase with respect to untreated controls (S. aureus (ATCC 25293); peptide alone 0.128 mg/mL): +21%; mean CFU number ± S.D. (S. aureus (ATCC 25293); peptide alone 0.128 mg/mL): 213 ± 23 CFU |
| CC[C@H](C)[C@H](NC(=O)[C@H](C)NC(=O)[C@@H](N)C(C)C)C(=O)N[C@@H](C)C(=O)N[C@@H](CC(C)C)C(=O)N[C@@H](CCCCN)C(=O)N[C@@H](C)C(=O)N[C@@H](C)C(=O)N[C@@H](Cc1c[nH]cn1)C(=O)N[C@@H](Cc1ccc(O)cc1)C(=O)N[C@@H](Cc1c[nH]cn1)C(=O)N[C@H](C(=O)N[C@@H](Cc1c[nH]cn1)C(=O)N[C@@H](CCCCN)C(=O)N[C@@H](CCC(=O)O)C(N)=O)[C@@H](C)O [L3, VAIALKAAHYHTHKE-NH2] (H-VAIALKAAHYHTHKE-NH2) | 7.75 | 9.53 | 10.01 | 9.47 | 33.11(2) | 5.82(4) | 25.36(3) | 15.83(5) | 19.40(5) | 9.94(4) | +6% | 187 ± 13 | -6% | 167 ± 22 | -2% | 173 ± 69 | -50% | 88 ± 18 | 94 ± 2 | 48 ± 8 | pKa [CuH3L] [1]: 6.90; pKa [CuH4L] [1]: 6.21; pKa [CuH5L] [1]: 5.16; pKa [ZnH2L] [1]: 8.65; pKa [ZnH3L] [1]: 7.69; pKa [ZnH4L] [1]: 7.32; pKa [ZnH5L] [1]: 5.6; logβ [CuH3L] [1, 2]: 40.00(3); logβ [CuH4L] [1, 2]: 46.21(2); logβ [CuH5L] [1, 2]: 51.38(2); logβ [ZnH2L] [1, 2]: 28.06(4); logβ [ZnH3L] [1, 2]: 35.75(6); logβ [ZnH4L] [1, 2]: 43.07(3); logβ [ZnH5L] [1, 2]: 48.7(1); CFU decrease/increase with respect to untreated controls (S. aureus (ATCC 25293); peptide alone 0.032 mg/mL): -28%; mean CFU number ± S.D. (S. aureus (ATCC 25293); peptide alone 0.032 mg/mL): 127 ± 64 CFU; mean CFU number ± S.D. (S. aureus (ATCC 25293); peptide alone 0.064 mg/mL): 101 ± 30 CFU; mean CFU number ± S.D. (S. aureus (ATCC 25293); peptide alone 0.128 mg/mL): 91 ± 12 CFU |
